# Results reported in US12180145B2, “Fused cyclooctyne compounds and their use in metal-free click reactions” (Synaffix B.V., priority 2010, dated 2024).
# Tests used:
# [1] = prior art cyclooctynes; cited from earlier work
# [2] = Reaction kinetics of cycloaddition (SPAAC) with benzyl azide, followed by proton NMR; format: physicochemical
# Text: In a preferred embodiment, a compound of the Formula (IIa), (IIb) and/or (IIc), or a conjugate thereof as described above, is reacted with a compound comprising a 1,3-dipole or a 1,3-(hetero)diene. For example the cycloaddition of (IIa) with benzyl azide in aqueous conditions proceeds rapidly and cleanly to the corresponding triazole adducts with excellent reaction kinetics (k=0.09-0.28 M^−1 s^−1, depending on the solvent). […] Consequently, a mixture of the exo- and endo-compounds according to the invention may be applied in some applications, avoiding the need for separation of the exo- and endo-compounds and even further simplifying the synthesis of the compounds according to the invention.
# The reaction kinetics for cycloaddition with the prototypical azide benzyl azide were investigated. Thus, compound endo-IIa.2 was dissolved in a 3:1 mixture of CD3CN and D2O and mixed with benzyl azide at a final concentration of 18 mM. […] A significant solvent effect was noticed because the same cycloaddition reaction in a 1:2 mixture of CD3CN and D2O gave rate constants of 0.28 and 0.25 M^−1 s^−1 for endo-IIa.2 and exo-IIa.2, respectively.
# [3] = 3:1 mixture of CD3CN and D2O, final concentration 18 mM
SMILES,reaction rate constant k of cycloaddition with azide [1] [M⁻¹ s⁻¹],second-order rate constant of cycloaddition with benzyl azide ([2]; 1:2 mixture of CD3CN and D2O) [M⁻¹ s⁻¹],"second-order rate constant of cycloaddition with benzyl azide [2, 3] [M⁻¹ s⁻¹]"
OC1Cc2ccccc2C#Cc2ccccc21 (stereo not drawn) [DIBO],0.12,,
O=C(O)CC1CCCCC#CC1(F)F (stereo not drawn) [DIFO3],≤ 0.076,,
"OC[C@H]1[C@H]2CCC#CCC[C@@H]12 [endo-IIa.2, endo-9-(hydroxymethyl)bicyclo[6.1.0]non-4-yne]",,0.28,0.12
"OCC1C2CCC#CCCC12 (stereo not drawn) [exo-IIa.2, 9-(hydroxymethyl)bicyclo[6.1.0]non-4-yne]",,0.25,0.10
